Laboratory results: US20030232102A1, “Total glycosides of paeony, method to prepare the same and uses thereof” (priority 2001, published 2003)

System: patients with rheumatoid arthritis
Assay: Phase II clinical study in rheumatoid arthritis: effectiveness (symptoms, physical examination, comprehensive evaluation)
Format: in vivo, human
Parameters: ESR Reduced to norm., % of cases / CRP Reduced to Norm., % of cases / RF Reduced to norm., % of cases: concentration or dose not given beside the values
Details: for AGS 50% increased, % of cases / AGS 50% increased, cases / CRP 50% reduced, % of cases / CRP 50% reduced, cases / CRP Reduced to Norm., % of cases / CRP Reduced to Norm., cases / ESR 50% reduced, % of cases / ESR 50% reduced, cases / ESR Reduced to norm., % of cases / ESR Reduced to norm., cases / ITJ 50% reduced, % of cases / ITJ 50% reduced, cases / ITJ Disappeared, % of cases / ITJ Disappeared, cases / MR 50% reduced, % of cases / MR 50% reduced, cases / MR Disappeared, % of cases / MR Disappeared, cases / NSJ 50% reduced, % of cases / NSJ 50% reduced, cases / NSJ Disappeared, % of cases / NSJ Disappeared, cases / RF 2 dilutions lower, % of cases / RF 2 dilutions lower, cases / RF Reduced to norm., cases: double blinded
Method: It was a multiple-centered, randomized, parallel, positive controlled Phrase II clinical study.
All clinical studies except the above mentioned 120 cases were conducted in a single-blind condition.
1) Age 18˜65, male or female who agreed to the investigational treatment for 12 weeks to 6 months. History of rheumatoid arthritis was within 3 years.
2) Documented Rheumatoid Arthritis based on a diagnostic criteria of 1987 Revised ARA Criteria for the Classification of Rheumatoid Arthritis
3) Diagnosis of a typical active stage of RA: A patient is said to be on an active stage of RA if he or she has satisfied at least 4 of the following 5 items.
2) Patient who quitted the treatment for the ineffectiveness 7 days after the start of administration was included in the efficacy analysis. Patient who quitted the treatment for the side effects was not included in the efficacy analysis but the safety analyses.
1) The placebo run-in period: Seven days before administration, the selected patients stopped using NSAIDs and took a placebo instead.
4) For the double-blinded study, patients in both groups would be given capsules and tablets in same shapes, odors and amount. Placebo of capsule or tablet were included. Neither doctors nor patients can tell the group of treatment from the other.
5) No analgesics, anti-inflammation drugs, immune regulatory agents or muscle relaxants were allowed during the period of study. Acetaminophen could be used when necessary. If a physical therapy was started before enrollment, it was allowed to be continued, yet, it should be taken all the way during the period of clinical study.
1) Pain at rest: patients were asked to scale the degree of pain with a ruler [drawing 1]
2) Morning stiffness: Patients were requested to make notes on duration of their morning joint stiffness, a time span from its appearance to recovery in minutes every morning. The doctors should evaluate their record sheets by questioning them. For example “Do you fell stiff in any of your joints? (today, these 2 days)” When get a “yes” in answer, then “when did you get up today?” and “when does the stiffness be gone?”
3) Swelling of joints: Take count of the index of joint swelling by summing up the degree number of each joint.
0=normal; 1=swelling soft tissues (synovium) without hydrarthrus; 2=swelling soft tissues (synovium) with hydrarthrus.
4) Tenderness of joints: Take count of the index of joint tenderness by summing up the degree number of each joint:
5) Grip strength: Fold the arm belt of a sphygmomanometer twice and seal it in a small cloth bag suitable for a hand to hold. Aerates the belt in pressure of 20 mm Hg. Patients were asked to grip the bag with their not braced left and right hand, the grip strength is the average pressures in mm Hg for three times.
6) Time consumed for a 15 meters' walk (Seconds): Time started from a calm standing to the final of 15 meters. The average of three times.
7) General joint function (criteria of ARA):
8) Self-scoring and physician's grading on disease conditions: Both patients and doctors were required to submit their score sheet every time on follow-up survey. The scoring was made upon following criteria:
9) Patient's general condition: condition on the physical strength, sleep and appetite.
No effect: less than 30% improvement in symptoms and physical signs.
Improved: About 50% improvement in symptoms and physical signs (including general conditions in physical strength, sleep and appetite).

[1] = double blind, n = 60 per group, 4 weeks
[2] = double blind, n = 60 per group, 8 weeks
[3] = double blind, n = 60 per group, 12 weeks

## CN(Cc1cnc2nc(N)nc(N)c2n1)c1ccc(C(=O)N[C@@H](CCC(=O)O)C(=O)O)cc1 [MTX, Methotrexate]
4 weeks
  Effective rate: 47.2%
  Overall effectiveness: Improved, % of patients: 36.6%
  Overall effectiveness: Improved, number of patient: 52
  Overall effectiveness: No effect, % of patients: 52.8%
  Overall effectiveness: No effect, number of patient: 75
  Overall effectiveness: Obv. improved, % of patients: 10.6%
  Overall effectiveness: Obv. improved, number of patient: 15
  AGS 50% increased, % of cases: 5.0%
  AGS 50% increased, cases: 3
  CRP 50% reduced, % of cases: 16.7%
  CRP 50% reduced, cases: 10
  CRP Reduced to Norm., % of cases: 6.7%
  CRP Reduced to Norm., cases: 4
  ESR 50% reduced, % of cases: 30.0%
  ESR 50% reduced, cases: 18
  ESR Reduced to norm., % of cases: 26.7%
  ESR Reduced to norm., cases: 16
  ITJ 50% reduced, % of cases: 31.7%
  ITJ 50% reduced, cases: 19
  ITJ Disappeared, % of cases: 3.3%
  ITJ Disappeared, cases: 2
  MR 50% reduced, % of cases: 38.3%
  MR 50% reduced, cases: 23
  MR Disappeared, % of cases: 25.0%
  MR Disappeared, cases: 15
  NSJ 50% reduced, % of cases: 40.0%
  NSJ 50% reduced, cases: 24
  NSJ Disappeared, % of cases: 15.0%
  NSJ Disappeared, cases: 9
  RF 2 dilutions lower, % of cases: 13.3%
  RF 2 dilutions lower, cases: 8
  RF Reduced to norm., cases: 0
8 weeks
  Effective rate: 64.8%
  Overall effectiveness: Improved, % of patients: 31.7%
  Overall effectiveness: Improved, number of patient: 45
  Overall effectiveness: No effect, % of patients: 35.2%
  Overall effectiveness: No effect, number of patient: 50
  Overall effectiveness: Obv. improved, % of patients: 33.1%
  Overall effectiveness: Obv. improved, number of patient: 47
  AGS 50% increased, % of cases: 10.0%
  AGS 50% increased, cases: 6
  CRP 50% reduced, % of cases: 26.7%
  CRP 50% reduced, cases: 16
  CRP Reduced to Norm., % of cases: 25.0%
  CRP Reduced to Norm., cases: 15
  ESR 50% reduced, % of cases: 41.7%
  ESR 50% reduced, cases: 25
  ESR Reduced to norm., % of cases: 31.7%
  ESR Reduced to norm., cases: 19
  ITJ 50% reduced, % of cases: 43.3%
  ITJ 50% reduced, cases: 26
  ITJ Disappeared, % of cases: 3.3%
  ITJ Disappeared, cases: 2
  MR 50% reduced, % of cases: 53.3%
  MR 50% reduced, cases: 32
  MR Disappeared, % of cases: 21.7%
  MR Disappeared, cases: 13
  NSJ 50% reduced, % of cases: 55.0%
  NSJ 50% reduced, cases: 33
  NSJ Disappeared, % of cases: 20.0%
  NSJ Disappeared, cases: 12
  RF 2 dilutions lower, % of cases: 36.7%
  RF 2 dilutions lower, cases: 22
  RF Reduced to norm., cases: 0
12 weeks
  Effective rate: 77.5%
  Overall effectiveness: Improved, % of patients: 28.9%
  Overall effectiveness: Improved, number of patient: 41
  Overall effectiveness: No effect, % of patients: 22.5%
  Overall effectiveness: No effect, number of patient: 32
  Overall effectiveness: Obv. improved, % of patients: 48.6%
  Overall effectiveness: Obv. improved, number of patient: 69
  AGS 50% increased, % of cases: 15.0%
  AGS 50% increased, cases: 9
  CRP 50% reduced, % of cases: 33.3%
  CRP 50% reduced, cases: 20
  CRP Reduced to Norm., % of cases: 8.3%
  CRP Reduced to Norm., cases: 5
  ESR 50% reduced, % of cases: 51.7%
  ESR 50% reduced, cases: 31
  ESR Reduced to norm., % of cases: 33.3%
  ESR Reduced to norm., cases: 20
  ITJ 50% reduced, % of cases: 51.7%
  ITJ 50% reduced, cases: 31
  ITJ Disappeared, % of cases: 15.0%
  ITJ Disappeared, cases: 9
  MR 50% reduced, % of cases: 60.0%
  MR 50% reduced, cases: 36
  MR Disappeared, % of cases: 25.0%
24 weeks
  Effective rate: 81.7%
  Overall effectiveness: Improved, % of patients: 10.0%
  Overall effectiveness: Improved, number of patient: 6
  Overall effectiveness: No effect, % of patients: 18.3%
  Overall effectiveness: No effect, number of patient: 11
  Overall effectiveness: Obv. improved, % of patients: 71.7%
  Overall effectiveness: Obv. improved, number of patient: 43
Double blind, 4 weeks, mean
  Changes in RA perimeters: GS-L: 12.70
  Changes in RA perimeters: GS-R: 12.05
  Changes in RA perimeters: ISJ: 2.47
  Changes in RA perimeters: ITJ: 6.83
  Changes in RA perimeters: MR: 33.52
  Changes in RA perimeters: NSJ: 1.92
  Changes in RA perimeters: NTJ: 3.53
  Changes in RA perimeters: PR: 1.33
Double blind, 8 weeks, mean
  Changes in RA perimeters: GS-L: 17.55
  Changes in RA perimeters: GS-R: 16.68
  Changes in RA perimeters: ISJ: 4.03
  Changes in RA perimeters: ITJ: 9.53
  Changes in RA perimeters: MR: 41.03
  Changes in RA perimeters: NSJ: 2.97
  Changes in RA perimeters: NTJ: 5.52
  Changes in RA perimeters: PR: 1.94
Double blind, 12 weeks, mean
  Changes in RA perimeters: GS, L: 22.03
  Changes in RA perimeters: GS, R: 21.85
  Changes in RA perimeters: ITJ: 11.59
  Changes in RA perimeters: MR: 46.08
  Changes in RA perimeters: NSJ: 3.92
  Changes in RA perimeters: NTJ: 6.73
  Changes in RA perimeters: PR: 2.60
  Changes in RA perimeters: TSJ: 5.08
[1]
  Effective rate: 43.3%
  Improved, % of patients: (31.7%)
  Improved, number of patients: 19
  No effect, % of patients: (56.7%)
  No effect, number of patients: 34
  Obviously improved, % of patients: (11.7%)
  Obviously improved, number of patients: 7
[2]
  Effective rate: 66.7%
  Improved, % of patients: (31.7%)
  Improved, number of patients: 19
  No effect, % of patients: (33.3%)
  No effect, number of patients: 20
  Obviously improved, % of patients: (35.0%)
  Obviously improved, number of patients: 21
[3]
  Effective rate: 75.0%
  Improved, % of patients: (26.7%)
  Improved, number of patients: 16
  No effect, % of patients: (25.0%)
  No effect, number of patients: 15
  Obviously improved, % of patients: (48.33%)
  Obviously improved, number of patients: 29
